From patent US10463664B2, “Inhibitors of HSV nucleotidyl transferases and uses therefor” (Saint Louis University, priority 2013, dated 2019) come the findings set out here.

Data set [1] concerns Vero cells. Nature of the data set: CytoTox-Glo cellular lysis assay in Vero cells. The class given is cell-based. Conditions: 24 h; read-out: Vero cell toxicity CTG CC50. The protocol:
(§1) Quantitative toxicity measurements were conducted for all compounds that suppressed HSV replication by approximately 2 login or more at 5 μM plus a number of compounds with lesser inhibitory activity for comparison. Toxicity was assessed by measuring release of intracellular proteases into the culture medium due to cellular lysis. […] Consistent with the subjective assessments of toxicity, all compounds selected for quantitative toxicity assessment had CC50 values ≥50 μM by both the MTT and cellular lysis assays (Table 1).

Data set [2] concerns HSV-2. Nature of the data set: HSV-2 viral DNA replication (quantitative PCR, GE) versus infectious virus (PFU) in Vero cells. Format: cell-based, herpes simplex virus 2. Particulars: for Fold suppression GE / Fold suppression PFU: 24 h, relative to DMSO. The protocol: Quantitative PCR measurement of viral genome levels. Infected cell cultures were collected and virus and cells were pelleted by centrifugation for 30 min at 12,000 rpm. Total DNA was isolated from the pellets using a QIAamp DNA Mini Kit (Qiagen) according to the manufacturer's instructions. DNA concentration of each preparation was measured using a Nanodrop 2000 spectrophotometer. The primers and probe for real-time PCR were designed to amplify a 108 bp segment in the HSV-2 LAT region. […] PCR reactions were set up in 25 μL containing FastStart Universal Probe master mix containing Rox (Roche), 900 nM forward and reverse primers, 250 nM probe, and 5 μL template DNA preparation (˜30-100 ng total DNA). Quantification was performed in triplicate for each DNA preparation using an ABI model 7500 genetic analyzer (Applied Biosystems) with the following cycling parameters: 1 cycle at 50° C. for 2 min, 1 cycle at 95° C. for 10 min, 40 cycles at 95° C. for 15 s, and 60° C. for 1 min. For absolute quantification, 10^3 to 10^8 copies of plasmid pcDNA3.1(+)5′Flag-ICP0 was used to generate a standard curve. Data were analyzed using Sequence Detection System software (ABI), and HSV-2 genome equivalents number per nanogram of total DNA was calculated and used for comparison.
Viral replication was measured 24 hours post-infection by plaque assay, and DNA replication was measured using quantitative PCR against the LAT gene and expressed as genome-equivalents (GE). […] Two inhibitor concentrations were assessed for compounds #30 (60 and 20 μM) and #46 (20 and 10 μM).

In data set [3] the test system is HFFs. Nature of the data set: Neutral red cytotoxicity assay in uninfected HFFs (14 day, with CPE assay). Format: cell-based, human. Conditions: 14 days. The procedure:
Anti-HCMV CPE inhibition and cytotoxicity assays. HFFs were infected with HCMV strain AD169 in the presence of serial dilutions of the compounds from 0.0192 to 60 μM. Fourteen days later the monolayers were stained with crystal violet, and retained cell density was quantified using a multiplate autoreader (BioTek). Cytotoxicity was measured the same way, except that the cells were uninfected and neutral red internalization by viable cells was measured.
Antiviral efficacy against HCMV. The ability of select HSV inhibitors to inhibit replication of another major human herpesvirus pathogen, human cytomegalovirus (HCMV) (65) was tested. This was based on the inhibitors strong suppression of HSV-1 and HSV-2 and the prediction that other members of the herpesvirus family would be sensitive to NTS inhibitors due to their shared DNA replication mechanism. Compounds #41, 46, 49, 55, 56, and 59 and the FDA-approved anti-HCMV drug ganciclovir were evaluated with crystal violet CPE and neutral red toxicity assays in HFFs. HFFs were infected with HCMV in the presence of serial dilutions of the compounds that were most inhibitory for HSVs. After 14 days the monolayers were stained and cell density was determined by OD reading. Compound cytotoxicity for uninfected cells was determined in the same manner except that neutral red uptake by viable cells was measured. […] The TI values for the four NTS inhibitors of HCMV ranged from 4 for compound #41 to 38 for #56. Therefore, NTS inhibitors can suppress HCMV replication in addition to inhibiting the HSVs.

The subject of data set [4] is HSV-1 TK-deficient mutant ΔTK (strain 17). Nature of the data set: Replication inhibition of thymidine kinase-deficient HSV-1 mutant in Vero cells. The class given is cell-based, herpes simplex virus 1. Conditions: 50 μM, 24 h. The protocol: Cells and Viruses. Vero cells were maintained in Dulbecco's modified Eagle's medium (DMEM) containing 3% newborn calf serum, 3% bovine growth serum, 2 mM L-glutamine and 100 IU/mL penicillin and 0.1 mg/mL streptomycin (P/S). Primary human foreskin fibroblasts (ATCC #CRL2429™) were cultured in DMEM containing 10% FBS, 2 mM L-glutamine plus P/S, and used at passage 3 to 12. HSV-1 #6 and HSV-2 #1 are de-identified clinical isolates from the Saint Louis University Hospital. Stocks were prepared after a single passage in cell culture and were titered by standard plaque assay (Knipe and Spang, 1982). Wild-type HSV-1 and HSV-2 used in FIG. 6 were laboratory strains 17 and 333, respectively. The HSV-1 TK-deficient mutant, ΔTK contains a 361-bp deletion between the BglII-SmaI restriction enzyme sites in the UL23 open reading frame of strain 17 (Korom, et al., 2013). The TK-deficient mutant of HSV-2 strain 333, ΔTK-, contains a 180-bp KpnI-KpnI deletion in the UL23 open reading frame that abrogates TK activity (McDermott, et al, 1984). ΔTK- was the generous gift of Jim Smiley. Virus stocks were grown and titered on Vero cells (Morrison and Knipe, 1996).
Inhibition of acyclovir-resistant HSV-1 and HSV-2 mutants. […] HSV TK-deficient mutants are therefore insensitive to ACV. […] Vero cells were infected with laboratory strains of HSV-1 or HSV-2 and engineered TK-deficient mutants of the same strains. […] Similar patterns were seen when the compounds were used at 5 μM (FIG. 8B), although inhibition by compound #30 at 5 μM was too low to definitively interpret.

A short description of data set [5]: MTT mitochondrial toxicity assay in Vero cells. Format: cell-based. Conditions: African green monkey, Vero cells, read-out: Vero cell toxicity MTT CC50. A general note: Tetrazolium assays rely on reduction of a dye to a coloured formazan, in cell work by metabolically active cells.
Data set [6] in a line: CytoTox-Glo cellular lysis assay in Vero cells. Format: cell-based. Conditions: African green monkey, Vero cells, read-out: Vero cell toxicity CTG CC50. The protocol: as §1
Data set [7] is described as follows: in vitro. Conditions: human. In a few lines: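 Primary HFF, 1.0×10^4/well, exposed 24 h to 0.78–100 μM compound in 1% DMSO. Viability read by MTT (0.25 mg/mL, 60 min, 570 nm) and by protease-release lysis luminescence. CC50 by non-linear fit of percent viability.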

For `C=C(C)C1CCc2c(c(C)cc(O)c(=O)c2O)C1` (stereo not drawn) [Compound 56, Manicol], the CC50 in data set [1] was about 100 µM. In data set [2] (20 μM), the “Fold suppression PFU/GE” value was 314.3, the “Fold suppression GE” value is 420 fold and the “Fold suppression PFU” value is on record as 132000 fold. Further, in data set [3], the CC50 was 38.4 µM and the “CC50, neutral red” value was “measurable toxicity”.

`CC(C)=CCc1ccc(O)c(=O)cc1C(C)C` [Compound 49, Nootkatin]: the CC50 in data set [1] was over 100 µM; in data set [3], over 60 µM.

`CCOc1ccc(-c2c3cc(O)c(=O)cc-3oc3cc(O)c(O)cc23)cc1` [Compound 30]: the CC50 in data set [1] is over 100 µM. In data set [2] (20 μM), the “Fold suppression PFU/GE” value is listed as 4.5, the “Fold suppression GE” value is 150 fold and the “Fold suppression PFU” value is 676 fold. For the same molecule, in data set [2] (60 μM), the “Fold suppression PFU/GE” value is recorded as 143.7, the “Fold suppression GE” value turned out to be 247 fold and the “Fold suppression PFU” value is 35500 fold. Further, in data set [4], the “Inhibition of TK-mutant HSV-1 (in words)” value was “efficiently inhibited”.

As for `CC(C)c1ccc(O)c(=O)c(O)c1` [Compound 46, Beta-thujaplicinol], the CC50 in data set [1] was over 100 µM. Further, in data set [2] (10 μM), the “Fold suppression PFU/GE” value is recorded as 541.6, the “Fold suppression GE” value amounted to 470 fold and the “Fold suppression PFU” value came to 254536 fold. In addition, in data set [2] (20 μM), the “Fold suppression PFU/GE” value stood at 538.2, the “Fold suppression GE” value was determined as 615 fold and the “Fold suppression PFU” value was determined as 331000 fold. Besides, in data set [3], the CC50 is over 60 µM. Besides, in data set [4], the “Inhibition of TK-mutant HSV-1 (in words)” value is “efficiently inhibited”.

As to `Nc1nc2c(ncn2COCCO)c(=O)[nH]1` [ACV, Acyclovir, reference compound], the CC50 at 24 h in data set [5], in data set [6] and in data set [7] was over 100 µM each time. Moreover, the “Inhibition of TK-mutant HSV-1 (in words)” value in data set [4] was “little effect”.

For the molecule `CC(=O)NC(CCc1ccc(Cl)c(Cl)c1)c1cccc(O)c(=O)c1` (stereo not drawn) [Compound 55], the CC50 in data set [1] is over 100 µM; in data set [3] it was over 60 µM.

As to `Cc1cc(C2CCCCC2)n(O)c(=O)c1` [Compound 41, Ciclopirox, reference compound], the CC50 at 24 h in data set [5] was over 50 µM. For the same molecule, in data set [6], the CC50 at 24 h is over 100 µM. Further, in data set [2] (10 μM), the “Fold suppression PFU/GE” value stood at 62.0, the “Fold suppression GE” value is given as 551 fold and the “Fold suppression PFU” value came out at 34159 fold. In data set [7], this molecule had a CC50 at 24 h of over 100 µM. The “CC50, neutral red” value in data set [3] was “measurable toxicity”. In addition, the “Inhibition of TK-mutant HSV-1 (in words)” value in data set [4] is “efficiently inhibited”.
